In US6710075B2, “Therapeutic compounds and methods” (The Government of the State of Sarawak, Malaysia, priority 2000, dated 2004):
Like-named read-outs stand apart in the source and are kept apart here.

Tests used:
Format in all cases: cell-based
[1] = test system: panel of cell lines derived from a variety of human tumour types; assay: Cytostatic activity against a panel of human tumour cell lines (summary); conditions: 72 h, range over the cell line panel, 3 days, read-out: GI50 values in nearly all cell lines tested
Method: (b) Compound A was assessed for cytotoxic and cytostatic activity against a panel of cell lines derived from a variety of human tumour types in addition to THP-1 and A549 cells (Table 5). These included K562 leukemic cells (Lozzio and Lozzio, 1975, Blood 45:321-34), PC3 prostate tumour cells (Kaighn et al., 1979, Invest. Urol. 17:16-23) and SF268 glioblastoma cells (Westphal et al, 1985, Biochem. Biophys. Res. Commun., 132:284-9). […] However, the cytotoxic potency of Compound A increased dramatically after 6 days of culture for the K562, A549 and SF268 cells.

[2] = test system: 786-0; assay: NCI in vitro anticancer drug discovery screen (sulforhodamine B); conditions: Homo sapiens; for CC50: 786-0, 48 h, read-out: LC50 (the source's name)
Method: (§1) (c) Testing of Compound A against a much larger cell line panel in the NCI in vitro anticancer screen (Table 7) confirmed the results described above. […] Consistent with the data in Table 5 the cytotoxic effects measured after 2 days of culture were more varied with LC50 values ranging from 10 nM for COLO-205 colon tumour cells to ˜90 μM for 786-0 renal tumour cells.

[3] = test system: 8K-MEL-5; assay: as above; conditions: Homo sapiens, 8K-MEL-5, melanoma, 48 hr
Method: as §1

[4] = test system: A498; assay: as above; conditions: Homo sapiens, A498, renal, 48 hr
Method: as §1

[5] = test system: ACHN; assay: as above; conditions: Homo sapiens, renal, 48 hr
Method: as §1

[6] = test system: BT-549; assay: as above; conditions: Homo sapiens, BT-549, breast, 48 hr
Method: as §1

[7] = test system: COLO-205; assay: as above; conditions: Homo sapiens, COLO-205, colon, 48 hr
Method: as §1

[8] = test system: EKVX; assay: as above; conditions: Homo sapiens, lung, 48 hr
Method: as §1

[9] = test system: HT29; assay: as above; conditions: Homo sapiens, HT-29, HT29, colon, 48 hr
Method: as §1

[10] = test system: IGROVI; assay: as above; conditions: Homo sapiens, ovarian, 48 hr
Method: as §1

[11] = test system: LOX IMV1; assay: as above; conditions: Homo sapiens, LOX IMV1, melanoma, 48 hr
Method: as §1

[12] = test system: M14; assay: as above; conditions: Homo sapiens, M14, melanoma, 48 hr
Method: as §1

[13] = test system: MALME-3M; assay: as above; conditions: Homo sapiens, melanoma, 48 hr
Method: as §1

[14] = test system: MCF7; assay: as above; conditions: Homo sapiens, MCF7, breast, 48 hr
Method: as §1

[15] = test system: MDA-MB-231/ATCC; assay: as above; conditions: Homo sapiens, breast, 48 hr
Method: as §1

[16] = test system: MDA-MB-435; assay: as above; conditions: Homo sapiens, MDA-MB-435, breast, 48 hr
Method: as §1

[17] = test system: MDA-N; assay: as above; conditions: Homo sapiens, breast, 48 hr
Method: as §1

[18] = test system: NCI-11522; assay: as above; conditions: Homo sapiens, NCI-11522, lung, 48 hr
Method: as §1

[19] = test system: OVCAR-4; assay: as above; conditions: Homo sapiens, OVCAR-4, ovarian, 48 hr
Method: as §1

[20] = test system: OVCAR-5; assay: as above; conditions: Homo sapiens, OVCAR-5, ovarian, 48 hr
Method: as §1

[21] = test system: OVCAR-8; assay: as above; conditions: Homo sapiens, OVCAR-8, ovarian, 48 hr
Method: as §1

[22] = test system: RXF 393; assay: as above; conditions: Homo sapiens, RXF 393, renal, 48 hr
Method: as §1

[23] = test system: SF-268; assay: as above; conditions: Homo sapiens, SF-268, brain, 48 hr
Method: as §1

[24] = test system: SF-295; assay: as above; conditions: Homo sapiens, SF-295, brain, 48 hr
Method: as §1

[25] = test system: SF-539; assay: as above; conditions: Homo sapiens, SF-539, brain, 48 hr
Method: as §1

[26] = test system: SK-MEL-28; assay: as above; conditions: Homo sapiens, SK-MEL-28, melanoma, 48 hr
Method: as §1

[27] = test system: SK-OV-3; assay: as above; conditions: Homo sapiens, SK-OV-3, ovarian, 48 hr
Method: as §1

[28] = test system: SNB-75; assay: as above; conditions: Homo sapiens, SNB-75, brain, 48 hr
Method: as §1

[29] = test system: UACC-62; assay: as above; conditions: Homo sapiens, UACC-62, melanoma, 48 hr
Method: as §1

[30] = read-out: LC50 (the source's name)

COC(=O)[C@H]1[C@@H](O)[C@@]2(O)c3c(OC)cc(OC4OC(C(O)CO)COC4OC)cc3O[C@@]2(c2ccc(OC)cc2)[C@@H]1c1ccccc1 (single isomer, unassigned) [Compound A]
GI50 [1]: 1 to 7 nM | CC50 ([2]; 786-0, renal, 48 hr): 91200 nM | CC50 ([2]; 786-0 renal tumour cells, 2 days of culture): ~90000 nM | GI50 ([2]; 786-0, renal, 48 hr): < 10 nM | GI50 [3]: < 10 nM | CC50 [3, 30]: 67 nM | GI50 [4]: < 10 nM | CC50 [4, 30]: 18600 nM | GI50 [5]: < 10 nM | CC50 [5, 30]: 31600 nM | GI50 [6]: < 10 nM | CC50 [6, 30]: 32700 nM | GI50 [7]: < 10 nM | CC50 [7, 30]: 10 nM | GI50 [8]: < 10 nM | CC50 [8, 30]: 23 nM | GI50 [9]: < 10 nM | CC50 [9, 30]: 1000 nM | GI50 [10]: < 10 nM | CC50 [10, 30]: 2600 nM | GI50 [11]: < 10 nM | CC50 [11, 30]: 1000 nM | GI50 [12]: < 10 nM | CC50 [12, 30]: 51 nM | GI50 [13]: < 10 nM | CC50 [13, 30]: 24000 nM | GI50 [14]: < 10 nM | CC50 [14, 30]: 1000 nM | GI50 [15]: < 10 nM | CC50 [15, 30]: 25400 nM | GI50 [16]: < 10 nM | CC50 [16, 30]: 45 nM | GI50 [17]: < 10 nM | CC50 [17, 30]: 543 nM | GI50 [18]: < 10 nM | CC50 [18, 30]: 2400 nM | GI50 [19]: < 10 nM | CC50 [19, 30]: 11 nM | GI50 [20]: < 10 nM | CC50 [20, 30]: 1000 nM | GI50 [21]: < 10 nM | CC50 [21, 30]: 21900 nM | GI50 [22]: < 10 nM | CC50 [22, 30]: 1640 nM | GI50 [23]: < 10 nM | CC50 [23, 30]: 1000 nM | GI50 [24]: < 10 nM | CC50 [24, 30]: 1230 nM | GI50 [25]: < 10 nM | CC50 [25, 30]: 1100 nM | GI50 [26]: < 10 nM | CC50 [26, 30]: 2660 nM | GI50 [27]: < 10 nM | CC50 [27, 30]: 82200 nM | GI50 [28]: < 10 nM | CC50 [28, 30]: 54 nM | GI50 [29]: < 10 nM | CC50 [29, 30]: 30 nM
